Data published in patent US6391309B1, “Method of preparing and using isoflavones for the treatment of female symptoms” (Archer Daniesl Midland Company, priority 1996, dated 2002).

Experiments:
[1] = Solubility of isoflavones in distilled water at 37° C., HPLC after filtration; assay type: physicochemical; details: 0.02% in distilled water, 17 hours, 0.2 micron filter
Procedure: Separate solutions (0.02% in distilled water) were made for genistein, genistin, daidzein, daidzin and isoflavone concentrate in volumetric flasks. Samples were then placed in a 37° C. water bath for 17 hours, followed by rapid filtration through a 0.2 micron syringe-type filter to remove particulates. Filtered samples were then analyzed for isoflavone concentration by HPLC.

LNCaP cells = assay: In vitro secretion of PSA by LNCaP cells into media; assay type: cell-based
Procedure: PSA concentrations were reduced 68% and 74% by 25 and 50 μM of genistein treatment respectively, and 31% and 42% by 25 and 50 μM of soy phytochemical concentrate treatment respectively.

| Genistein concentration in solution (solubility) [1] [ppm] | Compound | Daidzin concentration in solution (solubility) [1] [ppm] | PSA concentration reduced (LNCaP cells; 25 μM) [%] | PSA concentration reduced (LNCaP cells; 50 μM) [%] |
| --- | --- | --- | --- | --- |
|  | O=c1c(-c2ccc(O)cc2)coc2cc(O[C@@H]3O[C@H](CO)[C@@H](O)[C@H](O)[C@H]3O)ccc12 [daidzin] | 48.51 |  |  |
| 7.42 | O=c1c(-c2ccc(O)cc2)coc2cc(O)cc(O)c12 [genistein] |  | 68 | 74 |
